Measurements as given in publication PMC4416786, “Validation of a P-Glycoprotein (P-gp) Humanized Mouse Model by Integrating Selective Absolute Quantification of Human MDR1, Mouse Mdr1a and Mdr1b Protein Expressions with In Vivo Functional Analysis for Blood-Brain Barrier Transport” (PLoS ONE, 2015).
Like-named read-outs stand apart in the source and are kept apart here.

Columns and labels:
[1] = Plasma protein binding by high throughput equilibrium dialysis
Experimental: Equilibrium dialysis was performed to measure the plasma unbound fraction of the drugs studied, and to measure possible differences in the plasma protein binding between hMDR1 and C57BL/6 WT mice. A high throughput, 96 well equilibrium dialysis apparatus (Model HTD96b, HTDialysis, Connecticut, USA) with dialysis membrane strips with a molecular weight cut-off of 12–14 kDa was used. The concentrations of the substances were the same as those achieved in plasma during the in vivo experiments. One side of each well used was loaded with 125 μl of plasma spiked with drug and the other side was loaded with 125 μl phosphate buffer saline (PBS). The top surface of the Teflon block was then sealed with an adhesive film. […] Triplicates of the same concentration for each compound were measured. After the incubation period 80 μl from the buffer side was added into 80 μl of blank mouse plasma and 80 μl from the plasma was added into 80 μl of PBS. Samples were stored at -20 until analysis.

P-gp [2] = tested on: P-gp; set-up: method as in PMID 19047468; conditions: PET imaging; cited from earlier work
P-gp [3] = biological target: T1, P-gp (Mus musculus, UniProt P21447); set-up: hMDR1 and C57BL/6 WT mice; from tissue; host or cells: blood-brain barrier (brain capillaries) of living male C57BL/6 WT mice; method as in PMID 7910522; conditions: cited from earlier work
human P-gp (hMDR1) [4] = conditions: digoxin 1 mg/kg s.c.; blocker one hour before digoxin
Source text: (§1) The total brain concentration (ng/g brain tissue) of the substance was divided with the total plasma concentration (ng/ml) of the substance to obtain the tissue partition ratio (Kp), which was compared between the groups of mice. […] The the fraction unbound in plasma (fu, p) measured with equilibrium dialysis was used in the calculations.

P-gp [5] = biological target: T1, P-gp; conditions: in vivo
Experimental: Brain to plasma total concentration ratios (Kp) of the substances were measured for each animal. Unbound volume of distribution in brain (Vu, brain) was measured with the brain slice method [14] and fraction unbound in plasma (fu, p) was measured with high throughput equilibrium dialysis.
All the substances were administered subcutaneously except docetaxel, which was given intravenously in the tail vein as a slow injection over five minutes due to its tissue irritating character. […] The volume administered of all substances was 0.01 ml/g_body weight.
Blood was collected with a pre-heparinized syringe by cardiac puncture and was centrifuged for 5 minutes at 10000 rpm to obtain plasma. Brain was also sampled. The brain was divided in two equal parts and frozen on dry ice before weighed. All the samples were stored at -80°C until analysis.
as §1

[6] = C57BL/6, mouse, 5 h, 200 nM
human P-gp (hMDR1) [7] = assay: in vivo; conditions: hMDR1 (MDR1 humanized), mouse
mouse P-gp = mouse P-gp (Mus musculus, UniProt P21447); assay: in vivo; conditions: C57BL/6, mouse
human P-gp (hMDR1) [8] = conditions: mouse, in vivo
P-gp [9] = biological target: T1, P-gp; conditions: C57BL/6 WT mice, oxycodone 1 mg/kg s.c., cyclosporine A 100 mg/kg i.p., verapamil 3 mg/kg s.c. or elacridar 6 mg/kg s.c. one hour before
Source text: Brain and liver were sampled after sacrificing the animal.
as §1

P-gp [10] = tested on: P-gp; set-up: method as in PMID 16850390; conditions: cited from earlier work
P-gp [11] = conditions: rats; cited from earlier work
[12] = hMDR1 (MDR1 humanized), mouse, plasma

T1 sequence (P21447 whole entry): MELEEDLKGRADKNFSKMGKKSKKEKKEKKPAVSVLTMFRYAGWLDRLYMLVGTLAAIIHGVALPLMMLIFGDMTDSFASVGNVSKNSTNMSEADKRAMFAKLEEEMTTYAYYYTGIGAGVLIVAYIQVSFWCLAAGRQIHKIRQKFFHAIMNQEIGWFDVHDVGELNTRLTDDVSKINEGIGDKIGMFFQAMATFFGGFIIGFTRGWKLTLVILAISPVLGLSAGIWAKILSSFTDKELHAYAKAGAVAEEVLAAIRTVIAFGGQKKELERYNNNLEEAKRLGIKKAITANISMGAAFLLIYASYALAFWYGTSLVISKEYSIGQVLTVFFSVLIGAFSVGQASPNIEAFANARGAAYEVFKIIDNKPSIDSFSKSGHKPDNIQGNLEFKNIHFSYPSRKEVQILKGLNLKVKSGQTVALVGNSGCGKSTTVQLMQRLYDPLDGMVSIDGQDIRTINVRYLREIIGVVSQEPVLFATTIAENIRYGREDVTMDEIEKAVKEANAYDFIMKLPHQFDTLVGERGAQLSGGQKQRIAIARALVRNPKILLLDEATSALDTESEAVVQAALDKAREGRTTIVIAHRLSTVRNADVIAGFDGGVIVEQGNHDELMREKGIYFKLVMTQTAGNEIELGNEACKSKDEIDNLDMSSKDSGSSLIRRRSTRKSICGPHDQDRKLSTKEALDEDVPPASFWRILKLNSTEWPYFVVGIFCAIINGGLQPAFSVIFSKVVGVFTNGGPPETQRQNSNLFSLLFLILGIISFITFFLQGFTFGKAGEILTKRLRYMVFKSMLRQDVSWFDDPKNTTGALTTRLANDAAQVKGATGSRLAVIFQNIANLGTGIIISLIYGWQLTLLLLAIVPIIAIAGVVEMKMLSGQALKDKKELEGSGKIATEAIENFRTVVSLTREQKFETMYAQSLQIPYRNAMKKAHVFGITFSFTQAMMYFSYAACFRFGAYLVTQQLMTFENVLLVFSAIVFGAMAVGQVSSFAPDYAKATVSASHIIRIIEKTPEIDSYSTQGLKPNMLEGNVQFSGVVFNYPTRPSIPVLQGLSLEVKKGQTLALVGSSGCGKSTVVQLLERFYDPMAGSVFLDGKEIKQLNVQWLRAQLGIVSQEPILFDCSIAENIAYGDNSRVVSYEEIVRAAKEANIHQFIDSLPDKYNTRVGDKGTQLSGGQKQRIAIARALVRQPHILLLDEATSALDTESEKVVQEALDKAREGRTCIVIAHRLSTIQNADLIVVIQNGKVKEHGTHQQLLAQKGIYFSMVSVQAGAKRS
Chain of mouse P-gp (P21447 whole entry): as above

SMILES: COc1ccc2c3c1O[C@H]1C(=O)CC[C@@]4(O)[C@@H](C2)N(C)CC[C@]314 [Oxycodone]
- fraction unbound ([1]; C57BL/6, mouse): 0.681
- fraction unbound ([1]; hMDR1 (MDR1 humanized), mouse): 0.681

SMILES: O=C(c1ccc([18F])cc1)C1CCN(CCn2c(=S)[nH]c3ccccc3c2=O)CC1 [[18F]altanserine]
- Brain penetration in humans relative to rodents (P-gp [2]): 4.5 times

SMILES: C[C@H]1O[C@@H](O[C@H]2[C@@H](O)C[C@H](O[C@H]3[C@@H](O)C[C@H](O[C@H]4CC[C@@]5(C)[C@H](CC[C@@H]6[C@@H]5C[C@@H](O)[C@]5(C)[C@@H](C7=CC(=O)OC7)CC[C@]65O)C4)O[C@@H]3C)O[C@@H]2C)C[C@H](O)[C@@H]1O [Digoxin]
- fraction unbound ([1]; C57BL/6, mouse, plasma): 0.594
- fraction unbound [1, 12]: 0.607

SMILES: CC[C@]1(O)C[C@@H]2CN(CCc3c([nH]c4ccccc34)[C@@](C(=O)OC)(c3cc4c(cc3OC)N(C)[C@H]3[C@@](O)(C(=O)OC)[C@H](OC(C)=O)[C@]5(CC)C=CCN6CC[C@]43[C@@H]65)C2)C1 [vinblastine]
- Sensitivity of Mdr1a(-/-) mice compared to wild type controls (P-gp [3]): 3 fold

SMILES: C=C[C@H]1C[N@@]2CC[C@H]1C[C@@H]2[C@@H](O)c1ccnc2ccc(OC)cc12 [Quinidine, Quinidine gluconate]
- Digoxin Kp in hMDR1 mice compared to C57BL/6 WT controls when treated with the blocker (human P-gp (hMDR1) [4]): significantly higher

SMILES: CC(=O)O[C@@]12CO[C@@H]1C[C@H](O)[C@@]1(C)C(=O)[C@H](O)C3=C(C)[C@@H](OC(=O)[C@H](O)[C@@H](NC(=O)OC(C)(C)C)c4ccccc4)C[C@@](O)([C@@H](OC(=O)c4ccccc4)[C@H]21)C3(C)C [Docetaxel]
- Kp in Mdr1a/1b(-/-) mice relative to FVB WT controls (P-gp [5]): 4 times
- Vu, brain [6]: 789 ml/g_brain
- Vu, brain (nonspecific binding to brain parenchymal tissue) [6]: 789 ml*g_brain^-1
- Kp uu at 1 h (human P-gp (hMDR1) [7]): 0.003
- Kp uu at 1 h (mouse P-gp): 0.002
- Kp in hMDR1 mice relative to C57BL/6 WT mice (human P-gp (hMDR1) [8]): 2 times
- fraction unbound ([1]; C57BL/6, mouse, plasma): 0.053
- fraction unbound [1, 12]: 0.052

SMILES: COc1cc2c(cc1OC)CN(CCc1ccc(NC(=O)c3cccc4c(=O)c5cccc(OC)c5[nH]c34)cc1)CC2 [Elacridar]
- Effect of the P-gp blocker on oxycodone Kp (P-gp [9]): not changed
- Effect of the P-gp blocker on oxycodone Kp (P-gp [9]; listed as elacridar (GF120918)): no effect
- Digoxin Kp in hMDR1 mice compared to C57BL/6 WT controls when treated with the blocker (human P-gp (hMDR1) [4]): significantly higher
- Blood concentration needed in guinea pigs to obtain the same inhibition as in rats and mice (P-gp [10]): higher blood concentration

SMILES: C/C=C/C[C@@H](C)C(=O)[C@H]1C(=O)N[C@@H](C(C)C)C(=O)N(C)CC(=O)N(C)[C@@H](CC(C)C)C(=O)N[C@@H](C(C)C)C(=O)N(C)[C@@H](CC(C)C)C(=O)N[C@@H](C)C(=O)N[C@H](C)C(=O)N(C)[C@@H](CC(C)C)C(=O)N(C)[C@@H](CC(C)C)C(=O)N(C)[C@@H](C(C)C)C(=O)N1C [PSC833]
- Effect of the P-gp blocker on the tail-flick latency of oxycodone (P-gp [11]): no effect
